Measured values reported in patent US6410558B1, “Fungicides for the control of take-all disease of plants” (Monsanto Technology LLC, priority 1991, dated 2002).

Test system: Gaeumannomyces graminis var. tritici (Ggt)
Test: In vitro Assay: mycelial growth of Ggt on minimal media agar plates containing test compound
Assay type: cell-based
Conditions: dark, 19-20° C., 4 to 5 days, diameter of mycelial growth; for In vitro (ppm) 0.1, Percent Inhibition / inhibition at 0.1 ppm: 0.1 ppm in minimal media agar; for In vitro (ppm) 1, Percent Inhibition / inhibition at 1 ppm: 1 ppm in minimal media agar; for In vitro (ppm) 10, Percent Inhibition / inhibition at 10 ppm: 10 ppm in minimal media agar; for inhibition at 0.1 ppm / inhibition at 1 ppm / inhibition at 10 ppm: Gaeumannomyces graminis; for inhibition at 0.1 ppm: read-out: In vitro (ppm) 0.1, Percent Inhibition; for inhibition at 1 ppm: read-out: In vitro (ppm) 1, Percent Inhibition; for inhibition at 10 ppm: read-out: In vitro (ppm) 10, Percent Inhibition
Experimental: The test compounds (0.25 mL of an appropriate stock solution in acetone) are incorporated into 25 mL minimal media agar [(prepared by autoclaving a solution of 17.5 g Czapek Dox broth (Difco), 7.5 g purified agar or Bacto-agar (Difco), and 500 mL distilled/deionized water, and then adding 50 μL of 1 mg/mL thiamine hydrochloride and 50 μL of 1 mg/mL biotin in 5% ethanol] and plates are prepared.
Each plate is inoculated by placing in a triangular shape three 4-mm plugs of Gaeumannomyces graminis var. tritici (Ggt) grown on the minimal media agar described above. The plates are incubated in the dark at 19-20° C. for 4 to 5 days. The growth of the fungus is measured as the diameter of the mycelial growth. The result is expressed as Percent Inhibition, calculated as [1-[(mm growth on treated plate −4)/(mm growth on control plate −4)]]×100.

Row | Compound | In vitro (ppm) 0.1, Percent Inhibition | In vitro (ppm) 1, Percent Inhibition | In vitro (ppm) 10, Percent Inhibition | inhibition at 0.1 ppm | inhibition at 1 ppm | inhibition at 10 ppm
1 | 2-Chloro-N-ethyl-6-(9-phenylethenyl)benzamide [Example 116] | N (If the calculation resulted in “0” or less, as compared to the untreated control, a “N” is shown to indicate no control.) | N (If the calculation resulted in “0” or less, as compared to the untreated control, a “N” is shown to indicate no control.) | 33% | – | – | –
2 | 3-N,N-diethyl-2-(trimethylsilyl)benzamide [Example 15] | N (If the calculation resulted in “0” or less, as compared to the untreated control, a “N” is shown to indicate no control.) | N (If the calculation resulted in “0” or less, as compared to the untreated control, a “N” is shown to indicate no control.) | 44% | – | – | –
3 | CCN(CC)C(=O)c1cccc(F)c1[Si](C)(C)C(C)(C)C [Example 9, 2-[(1,1-Dimethylethyl)dimethylsilyl]-N,N-diethyl-3-fluorobenzamide] | – | – | – | 3% | < 0% | 71%
4 | CCN(CC)C(=O)c1c(C)ccc(F)c1[Si](C)(C)C(C)(C)C [Example 10, 2-[(1,1-Dimethylethyl)dimethylsilyl]-N,N-diethyl-3-fluoro-6-methylbenzamide] | – | – | – | < 0% | < 0% | 50%
5 | Cc1ccc(F)c([Si](C)(C)C)c1C(=O)N(C)C(C)(C)C [Example 11, N-(1,1-Dimethylethyl)-3-fluoro-N,6-dimethyl-2-(trimethylsilyl)benzamide] | – | – | – | < 0% | < 0% | 24%
6 | CN(C(=O)c1c(Cl)cccc1[Si](C)(C)C)C(C)(C)C [Example 23, 2-Chloro-N-(1,1-dimethylethyl)-N-methyl-6-(trimethylsilyl)benzamide] | – | – | – | < 0% | < 0% | 71%
7 | CCN(C(=O)c1c(Cl)cccc1[Si](C)(C)C)c1ccccc1 [Example 24, 2-Chloro-N-ethyl-N-phenyl-6-(trimethylsilyl)benzamide] | – | – | – | < 0% | < 0% | 100%
8 | C[Si](C)(C)c1cccc(Cl)c1C(=O)NCCCCl [Example 30, 2-Chloro-N-(3-chloropropyl)-6-(trimethylsilyl)benzamide] | – | – | – | < 0% | 60% | 80%
9 | C[Si](C)(C)c1cccc(Cl)c1C(=O)NCc1ccccc1 [Example 31, 2-Chloro-N-(phenylmethyl)-6-(trimethylsilyl)benzamide] | – | – | – | < 0% | 4% | 96%
10 | CCN(CC)C(=O)c1c(I)ccc(F)c1[Si](C)(C)C [Example 40, N,N-Diethyl-3-fluoro-6-iodo-2-(trimethylsilyl)benzamide] | – | – | – | < 0% | < 0% | 53%
11 | CCN(CC)C(=O)c1c(C=O)ccc(F)c1[Si](C)(C)C [Example 41, N,N-Diethyl-3-fluoro-6-formyl-2-(trimethylsilyl)benzamide] | – | – | – | 24% | 21% | 52%
12 | CCN(CC)C(=O)c1c(C(=O)OC)ccc(F)c1[Si](C)(C)C [Example 42, 2-[(Diethylamino)carbonyl]-4-fluoro-3-(trimethylsilyl)benzoic acid, methyl ester] | – | – | – | < 0% | < 0% | 30%
13 | CCN(CC)C(=O)c1c(C(=O)OC(C)C)ccc(F)c1[Si](C)(C)C [Example 43, 2-[(Diethylamino)carbonyl]-4-fluoro-3-(trimethylsilyl)benzoic acid, 1-methylethyl ester] | – | – | – | < 0% | < 0% | 63%
14 | CCc1cccc([Si](C)(C)C)c1C(=O)N(CC)CC [Example 44, N,N,2-Triethyl-6-(trimethylsilyl)benzamide] | – | – | – | < 0% | < 0% | 39%
15 | CCN(COC)C(=O)c1c(Cl)cccc1[Si](C)(C)C [Example 46, 2-Chloro-N-ethyl-N-(methoxymethyl)-6-(trimethylsilyl)benzamide] | – | – | – | 15% | 11% | 44%
16 | CCN(C(C)=O)C(=O)c1c(Cl)cccc1[Si](C)(C)C [Example 47, N-Acetyl-2-chloro-N-ethyl-6-(trimethylsilyl)benzamide] | – | – | – | < 0% | < 0% | 70%
17 | CCN(COC)C(=O)c1ccccc1[Si](C)(C)C [Example 50, N-Ethyl-N-(methoxymethyl)-2-(trimethylsilyl)benzamide] | – | – | – | 3% | 10% | 20%
18 | CCN(CC)C(=O)c1ccc(C)c(F)c1[Si](C)(C)C [Example 57, N,N-Diethyl-3-fluoro-4-methyl-2-(trimethylsilyl)benzamide] | – | – | – | 10% | < 0% | 90%
19 | CCN(CC)C(=O)c1ccc(C)cc1[Si](C)(C)C [Example 58, N,N-Diethyl-4-methyl-2-(trimethylsilyl)benzamide] | – | – | – | 13% | 6% | 55%
20 | CCN(CC)C(=O)c1c(Cl)cc(C)cc1[Si](C)(C)C [Example 59, N,N-Diethyl-2-chloro-4-methyl-6-(trimethylsilyl)benzamide] | – | – | – | 6% | < 0% | 26%
21 | CCN(CC)C(=O)c1c(C)cc(C)cc1[Si](C)(C)C [Example 60, N,N-Diethyl-2,4-dimethyl-6-(trimethylsilyl)benzamide] | – | – | – | < 0% | < 0% | 19%
22 | CCN(CC)C(=O)c1cc(C)ccc1[Si](C)(C)C [Example 63, N,N-Diethyl-5-methyl-2-(trimethylsilyl)benzamide] | – | – | – | < 0% | 40% | 69%
23 | CCN(CC)C(=O)c1cccc(C)c1[Si](C)(C)C [Example 64, N,N-diethyl-3-methyl-2-(trimethylsilyl)benzamide] | – | – | – | 20% | 14% | 31%
24 | CCNC(=O)c1ccsc1[Si](C)(C)C [Example 70, N-Ethyl-2-(trimethylsilyl)-3-thiophenecarboxamide] | – | – | – | < 0% | 15% | 44%
25 | CCNC(=O)c1c(Cl)cccc1-c1ccccc1C [Example 72, 3-Chloro-N-ethyl-2′-methyl-[1,1′-biphenyl]-2-carboxamide] | – | – | – | < 0% | 59% | 69%
26 | CCNC(=O)c1c(Cl)cccc1-c1cccc2ccccc12 [Example 73, 2-Chloro-N-ethyl-6-(1-naphthalenyl)benzamide] | – | – | – | 13% | 60% | 83%
27 | CCN(CC)C(=S)c1ccc(C)c(F)c1[Si](C)(C)C [Example 75, N,N-Diethyl-3-fluoro-4-methyl-2-(trimethylsilyl)thiobenzamide] | – | – | – | 5% | 26% | 31%
